According to ChEMBL document CHEMBL4825691, “Antimicrobial, modulatory, and antibiofilm activity of tt-farnesol on bacterial and fungal strains of importance to human health” (2021):
In brackets after ≈: the same amount, converted by molar mass.

Tests used:
Type in all cases: functional
Streptococcus sobrinus [1] = test: Ratio of MBC to MIC against Streptococcus sobrinus ATCC 27351
[2] = tested on: Staphylococcus epidermidis; test: Antibacterial activity against Staphylococcus epidermidis ATCC 12228 assessed as inhibition of bacterial growth incubated for 24 hrs by microdilution assay
Enterococcus faecalis [3] = test: Antibacterial activity against Enterococcus faecalis ATCC 6569 assessed as inhibition of bacterial growth incubated for 24 hrs by microdilution assay
Pseudomonas aeruginosa = test: Antibacterial activity against Pseudomonas aeruginosa ATCC 27853 assessed as inhibition of bacterial growth incubated for 24 hrs by microdilution assay
[4] = tested on: Stenotrophomonas maltophilia; test: Antibacterial activity against Stenotrophomonas maltophilia EM 0104assessed as inhibition of bacterial growth incubated for 24 hrs by microdilution assay
Staphylococcus aureus [5] = test: Antimicrobial activity against Staphylococcus aureus ATCC 29213 assessed assessed as reduction in bacterial growth at 1/8 times of drug MIC in the presence of vancomycin by microdilution method
Escherichia coli [6] = test: Antibacterial activity against Escherichia coli ATCC 35218 assessed as inhibition of bacterial growth incubated for 24 hrs by microdilution assay
Staphylococcus aureus [7] = test: Antimicrobial activity against Staphylococcus aureus MED 55 assessed assessed as reduction in bacterial growth at 1/4 times of drug MIC in the presence of vancomycin by microdilution method
Streptococcus agalactiae [8] = test: Antibacterial activity against Streptococcus agalactiae ATCC 13813 assessed as inhibition of bacterial growth incubated for 24 hrs by microdilution assay
Enterococcus faecalis [9] = test: Ratio of MBC to MIC against Enterococcus faecalis ATCC 51299
Staphylococcus aureus [10] = test: Ratio of MBC to MIC against Staphylococcus aureus MED 55
Streptococcus pyogenes [11] = test: Antimicrobial activity against Streptococcus pyogenes ATCC 19615 assessed assessed as reduction in bacterial growth at 1/4 times of drug MIC in the presence of Ampicillin by microdilution method
Serratia marcescens = test: Antibacterial activity against Serratia marcescens ATCC 13880 assessed as inhibition of bacterial growth incubated for 24 hrs by microdilution assay; conditions: subsp. marcescens ATCC 13880
Enterococcus faecalis [12] = test: Antimicrobial activity against Enterococcus faecalis ATCC 51299 assessed assessed as reduction in bacterial growth at 1/4 times of drug MIC in the presence of Teicoplanin by microdilution method
Proteus mirabilis = test: Antibacterial activity against Proteus mirabilis ATCC 25933 assessed as inhibition of bacterial growth incubated for 24 hrs by microdilution assay
Streptococcus mutans [13] = test: Antimicrobial activity against Streptococcus mutans ATCC 25175 assessed assessed as reduction in bacterial growth at 1/4 times of drug MIC in the presence of Ampicillin by microdilution method
Enterococcus durans [14] = test: Antimicrobial activity against Enterococcus durans BIO 0114 assessed assessed as reduction in bacterial growth at 1/8 times of drug MIC in the presence of Teicoplanin by microdilution method
Staphylococcus aureus [15] = test: Antimicrobial activity against […] assessed assessed as reduction in bacterial growth at 1/4 times of drug MIC in the presence of Oxacillin by microdilution method
Staphylococcus aureus [16] = test: Antimicrobial activity against Staphylococcus aureus ATCC […] assessed assessed as reduction in bacterial growth at 1/2 times of drug MIC in the presence of Oxacillin by microdilution method
Enterococcus durans [17] = test: Ratio of MBC to MIC against Enterococcus durans BIO 0114
Streptococcus mutans [18] = test: Ratio of MBC to MIC against Streptococcus mutans ATCC 25175
[19] = tested on: Staphylococcus epidermidis; test: Antimicrobial activity against Staphylococcus epidermidis ATCC 12228 assessed assessed as reduction in bacterial growth at 1/8 times of drug MIC in the presence of Oxacillin by microdilution method
Salmonella typhimurium = test: Antibacterial activity against Salmonella enterica subsp. enterica serovar Typhimurium ATCC 14028 assessed as inhibition of bacterial growth incubated for 24 hrs by microdilution assay
Streptococcus sobrinus [20] = test: Antibiofilm activity against drug-resistant Streptococcus sobrinus ATCC 27351 assessed as inhibition of biofilm formation incubated for 24 hrs by crystal violet staining based microtiter plate method
[21] = tested on: Staphylococcus epidermidis; test: Ratio of MBC to MIC against Staphylococcus epidermidis ATCC 12228
Escherichia coli [22] = test: Antibacterial activity against Escherichia coli EOL 931 assessed as inhibition of bacterial growth incubated for 24 hrs by microdilution assay
Klebsiella pneumoniae [23] = test: Antibacterial activity against Klebsiella pneumoniae ATCC 700603 assessed as inhibition of bacterial growth incubated for 24 hrs by microdilution assay
Escherichia coli [24] = test: Antibacterial activity against Escherichia coli EAEC I 4913 assessed as inhibition of bacterial growth incubated for 24 hrs by microdilution assay
Staphylococcus aureus [25] = test: Bactericidal activity against Staphylococcus aureus ATCC 43300 assessed as bacterial killing incubated for 24 hrs by microdilution assay
Streptococcus pyogenes [26] = test: Bactericidal activity against Streptococcus pyogenes ATCC 19615 assessed as bacterial killing incubated for 24 hrs by microdilution assay
Streptococcus agalactiae [27] = test: Ratio of MBC to MIC against Streptococcus agalactiae ATCC 13813
Streptococcus sobrinus [28] = test: Antimicrobial activity against Streptococcus sobrinus ATCC 27351 assessed assessed as reduction in bacterial growth at 1/4 times of drug MIC in the presence of Ampicillin by microdilution method
Streptococcus pyogenes [29] = test: Antimicrobial activity against Streptococcus pyogenes ATCC 19615 assessed assessed as reduction in bacterial growth at 1/8 times of drug MIC in the presence of Ampicillin by microdilution method
Staphylococcus aureus [30] = test: Antibiofilm activity against drug-resistant Staphylococcus aureus MED 55 assessed as inhibition of biofilm formation incubated for 24 hrs by crystal violet staining based microtiter plate method
Streptococcus sobrinus [31] = test: Bactericidal activity against Streptococcus sobrinus ATCC 27351 assessed as bacterial killing incubated for 24 hrs by microdilution assay
Enterococcus faecalis [32] = test: Antibacterial activity against Enterococcus faecalis ATCC 51299 assessed as inhibition of bacterial growth incubated for 24 hrs by microdilution assay
Streptococcus agalactiae [33] = test: Bactericidal activity against Streptococcus agalactiae ATCC 13813 assessed as bacterial killing incubated for 24 hrs by microdilution assay
Staphylococcus aureus [34] = test: Antimicrobial activity against Staphylococcus aureus ATCC 29213 assessed assessed as reduction in bacterial growth at 1/4 times of drug MIC in the presence of vancomycin by microdilution method
Enterococcus faecalis [35] = test: Antibacterial activity against Enterococcus faecalis ATCC 29212 assessed as inhibition of bacterial growth incubated for 24 hrs by microdilution assay
Klebsiella pneumoniae [36] = test: Antibacterial activity against Klebsiella pneumoniae ATCC 1705 assessed as inhibition of bacterial growth incubated for 24 hrs by microdilution assay
Staphylococcus aureus [37] = test: Antibacterial activity against Staphylococcus aureus ATCC 29213 assessed as inhibition of bacterial growth incubated for 24 hrs by microdilution assay
Streptococcus mutans [38] = test: Antibacterial activity against Streptococcus mutans ATCC 25175 assessed as inhibition of bacterial growth incubated for 24 hrs by microdilution assay
Streptococcus sobrinus [39] = test: Antibacterial activity against Streptococcus sobrinus ATCC 27351 assessed as inhibition of bacterial growth incubated for 24 hrs by microdilution assay

Q: Which results are given for `CC(C)=CCC/C(C)=C/CC/C(C)=C/CO` [FARNESOL]?
A: Ratio (Streptococcus sobrinus [1]): 2; MIC [2]: 32 µg/mL (≈ 144 µM); MIC (Enterococcus faecalis [3]): > 1020 µg/mL; MIC (Pseudomonas aeruginosa): > 1020 µg/mL; MIC [4]: > 1020 µg/mL; MIC (Staphylococcus aureus [5]): 2 µg/mL; MIC (Escherichia coli [6]): > 1020 µg/mL; MIC (Staphylococcus aureus [7]): 2 µg/mL; MIC (Streptococcus agalactiae [8]): 16 µg/mL (≈ 72 µM); Ratio (Enterococcus faecalis [9]): >4; Ratio (Staphylococcus aureus [10]): 2; MIC (Streptococcus pyogenes [11]): 0.063 µg/mL; MIC (Serratia marcescens): > 1020 µg/mL; MIC (Enterococcus faecalis [12]): 1 µg/mL; MIC (Proteus mirabilis): > 1020 µg/mL; MIC (Streptococcus mutans [13]): 0.5 µg/mL; MIC (Enterococcus durans [14]): 1 µg/mL; MIC (Staphylococcus aureus [15]): 8 µg/mL; MIC (Staphylococcus aureus [16]): 1 µg/mL; Ratio (Enterococcus durans [17]): >4; Ratio (Streptococcus mutans [18]): 4; MIC [19]: 0.25 µg/mL; MIC (Salmonella typhimurium): > 1020 µg/mL; MIC (Streptococcus sobrinus [20]): 8 µg/mL (≈ 36 µM); Ratio [21]: >4; MIC (Escherichia coli [22]): > 1020 µg/mL; MIC (Klebsiella pneumoniae [23]): > 1020 µg/mL; MIC (Escherichia coli [24]): > 1020 µg/mL; MBC (Staphylococcus aureus [25]): 512 µg/mL (≈ 2300 µM); MBC (Streptococcus pyogenes [26]): 64 µg/mL (≈ 288 µM); Ratio (Streptococcus agalactiae [27]): 2; MIC (Streptococcus sobrinus [28]): 0.125 µg/mL; MIC (Streptococcus pyogenes [29]): 0.063 µg/mL; MIC (Staphylococcus aureus [30]): 2 µg/mL (≈ 8.99 µM); MBC (Streptococcus sobrinus [31]): 16 µg/mL (≈ 72 µM); MIC (Enterococcus faecalis [32]): 128 µg/mL (≈ 576 µM); MBC (Streptococcus agalactiae [33]): 32 µg/mL (≈ 144 µM); MIC (Staphylococcus aureus [34]): 2 µg/mL; MIC (Enterococcus faecalis [35]): > 1020 µg/mL; MIC (Klebsiella pneumoniae [36]): > 1020 µg/mL; MIC (Staphylococcus aureus [37]): > 1020 µg/mL; MIC (Streptococcus mutans [38]): 128 µg/mL (≈ 576 µM); MIC (Streptococcus sobrinus [39]): 8 µg/mL (≈ 36 µM)
